Test system: patients with relapsing multiple sclerosis
Assay: Phase 2b dose-finding study: adverse events (TEAEs, SAEs, AESIs), safety population
Conditions: for Proportion of participants with TEAEs: BTK inhibitor treatment period (12 weeks); for Adverse event: Accidental overdose / Adverse event: Alanine aminotransferase increased / Adverse event: Alopecia / Adverse event: Back pain / Adverse event: Gastroenteritis / Adverse event: Headache / Adverse event: Muscle spasticity / Adverse event: Nasopharyngitis / Adverse event: Oropharyngeal pain / Adverse event: Peripheral edema / Adverse event: Respiratory tract infection / Adverse event: Upper respiratory tract infection: 12 weeks treatment
[1] = 15 mg, 12-week treatment period
[2] = 30 mg, 12-week treatment period
[3] = 60 mg, 12-week treatment period
[4] = All (N = 130), BTK inhibitor treatment period, safety population
[5] = All Dose Groups (N = 130), Weeks 1 to 12
[6] = BTK inhibitor 5 (N = 16), Weeks 1 to 4
[7] = BTK inhibitor 5 (N = 33), BTK inhibitor treatment period, safety population
[8] = BTK inhibitor 15 (N = 16), Weeks 1 to 4
[9] = BTK inhibitor 15 (N = 32), BTK inhibitor treatment period, safety population
[10] = BTK inhibitor 30 (N = 16), Weeks 1 to 4
[11] = BTK inhibitor 30 (N = 33), BTK inhibitor treatment period, safety population
[12] = BTK inhibitor 60 (N = 16), Weeks 1 to 4
[13] = BTK inhibitor 60 (N = 32), BTK inhibitor treatment period, safety population
[14] = BTKi 5 mg (N = 16), Weeks 1 to 4
[15] = BTKi 5 mg (n = 33), Weeks 1 to 12

Structure (SMILES): C=CC(=O)N1CCC[C@@H](n2c(=O)n(-c3ccc(Oc4ccccc4)cc3)c3c(N)nccc32)C1 [the BTK inhibitor, (R)-1-(1-acryloylpiperidin-3-yl)-4-amino-3-(4-phenoxyphenyl)-1H-imidazo[4,5-c]pyridin-2(3H)-one]
- Alanine aminotransferase increased (TEAE) (5 mg, 12-week treatment period): 1
- Alopecia (TEAE) (5 mg, 12-week treatment period): 1
- Back pain (TEAE) (5 mg, 12-week treatment period): 1
- Gastroenteritis (TEAE) (5 mg, 12-week treatment period): 1
- Headache (TEAE) (5 mg, 12-week treatment period): 1
- Nasopharyngitis (TEAE) (5 mg, 12-week treatment period): 1
- Oedema peripheral (TEAE) (5 mg, 12-week treatment period): 2
- Oropharyngeal pain (TEAE) (5 mg, 12-week treatment period): 1
- Upper respiratory tract infection (TEAE) (5 mg, 12-week treatment period): 2
- Proportion of participants with TEAEs (5 mg): 57.6%
- Headache (TEAE) (5 mg, Weeks 1 to 4): 3 cases
- Nausea (TEAE) (5 mg, Weeks 1 to 4): 2 cases
- Proportion of participants who experienced TEAEs (5 mg, Weeks 1 to 4): 31.3%
- Alopecia (TEAE) [1]: 1
- Back pain (TEAE) [1]: 1
- Headache (TEAE) [1]: 3
- Respiratory tract infection (TEAE) [1]: 1
- Upper respiratory tract infection (TEAE) [1]: 2
- Proportion of participants with TEAEs (15 mg): 53.1%
- Headache (TEAE) (15 mg, Weeks 1 to 4): 2 cases
- Proportion of participants who experienced TEAEs (15 mg, Weeks 1 to 4): 18.8%
- AESIs (alanine aminotransferase increased >3×ULN) (30 mg treatment period): 1
- Alanine aminotransferase increased (TEAE) [2]: 1
- Back pain (TEAE) [2]: 2
- Headache (TEAE) [2]: 1
- Muscle spasticity (TEAE) [2]: 1
- Nasopharyngitis (TEAE) [2]: 1
- Oropharyngeal pain (TEAE) [2]: 1
- Respiratory tract infection (TEAE) [2]: 1
- Upper respiratory tract infection (TEAE) [2]: 1
- Proportion of participants with TEAEs (30 mg): 54.5%
- Nausea (TEAE) (30 mg, Weeks 1 to 4): 1 cases
- Proportion of participants who experienced TEAEs (30 mg, Weeks 1 to 4): 12.5%
- Severe TEAEs (60 mg group, all other TEAEs mild or moderate): one
- AESIs (alanine aminotransferase increased >3×ULN) (60 mg treatment period): 1
- Treatment-emergent SAEs (MS relapse) (60 mg, Cohort 1, about 8 weeks after starting treatment): One
- Accidental overdose (TEAE) [3]: 3
- Alanine aminotransferase increased (TEAE) [3]: 1
- Alopecia (TEAE) [3]: 1
- Gastroenteritis (TEAE) [3]: 2
- Headache (TEAE) [3]: 4
- Muscle spasticity (TEAE) [3]: 2
- Nasopharyngitis (TEAE) [3]: 3
- Oedema peripheral (TEAE) [3]: 2
- Oropharyngeal pain (TEAE) [3]: 1
- Respiratory tract infection (TEAE) [3]: 1
- Upper respiratory tract infection (TEAE) [3]: 1
- Proportion of participants with TEAEs (60 mg): 50.0%
- Headache (TEAE) (60 mg, Weeks 1 to 4): 1 cases
- Proportion of participants who experienced TEAEs (60 mg, Weeks 1 to 4): 31.3%
- Correlation between dose administered and number of TEAEs (5-60 mg): no direct correlation
- Tolerability (5-60 mg once daily, over the 12 weeks of treatment): well-tolerated
- AESI: Alanice aminotransferase increased [4]: 2 (1.5) n (%)
- AESI: Investigations [4]: 2 (1.5) n (%)
- Any AESI [4]: 2 (1.5) n (%)
- Participants with any TEAE [4]: 69 (53.1) n (%)
- Participants with any TEAE leading to death [4]: 0 n (%)
- Participants with any TEAE leading to study treatment discontinuation [4]: 0 n (%)
- Participants with any severe TEAE [4]: 1 (0.8) n (%)
- Participants with any treatment emergent SAE [4]: 1 (0.8) n (%)
- Participants with any treatment-related TEAE [4]: 15 (11.5) n (%)
- Participants with study discontinuation due to any TEAE [4]: 0 n (%)
- Participants with treatment emergent SAE(s): Any class [4]: 1 (0.8) n(%)
- Participants with treatment emergent SAE(s): Multiple sclerosis relapse [4]: 1 (0.8) n(%)
- Participants with treatment emergent SAE(s): NERVOUS SYSTEM DISORDERS [4]: 1 (0.8) n(%)
- Participants with any TEAE leading to death (All (N = 130), Weeks 1 to 4): 0 n (%)
- Participants with any TEAE leading to study treatment discontinuation (All (N = 130), Weeks 1 to 4): 0 n (%)
- Participants with any severe TEAE (All (N = 130), Weeks 1 to 4): 0 n (%)
- Participants with any treatment emergent SAE (All (N = 130), Weeks 1 to 4): 0 n (%)
- Participants with study discontinuation due to any TEAE (All (N = 130), Weeks 1 to 4): 0 n (%)
- Adverse event: Accidental overdose (All Dose Groups (N = 130)): 3 (2%)
- Adverse event: Alanine aminotransferase increased (All Dose Groups (N = 130)): 3 (2%)
- Adverse event: Alopecia (All Dose Groups (N = 130)): 3 (2%)
- Adverse event: Back pain (All Dose Groups (N = 130)): 4 (3%)
- Adverse event: Gastroenteritis (All Dose Groups (N = 130)): 3 (2%)
- Adverse event: Headache (All Dose Groups (N = 130)): 9 (7%)
- Adverse event: Muscle spasticity (All Dose Groups (N = 130)): 3 (2%)
- Adverse event: Nasopharyngitis (All Dose Groups (N = 130)): 5 (4%)
- Adverse event: Oropharyngeal pain (All Dose Groups (N = 130)): 3 (2%)
- Adverse event: Peripheral edema (All Dose Groups (N = 130)): 4 (3%)
- Adverse event: Respiratory tract infection (All Dose Groups (N = 130)): 3 (2%)
- Adverse event: Upper respiratory tract infection (All Dose Groups (N = 130)): 6 (5%)
- AE leading to death [5]: 0 n (%)
- AE leading to study discontinuation [5]: 0 n (%)
- Any AE (4 weeks vs. placebo 12 weeks) [5]: 70 (53.8) n (%)
- Any AE leading to study treatment discontinuation [5]: 0 n (%)
- Any treatment-related AE [5]: 17 (13.1) n (%)
- Serious AE [5]: 1 (0.8) n (%)
- AESI: Alanice aminotransferase increased [6]: 0 n (%)
- AESI: Investigations [6]: 0 n (%)
- Any AESI [6]: 0 n (%)
- AESI: Investigations [7]: 0 n (%)
- Any AESI [7]: 0 n (%)
- AESI: Alanice aminotransferase increased (BTK inhibitor 5, BTK inhibitor treatment period, safety population): 0 n (%)
- AESI: Alanice aminotransferase increased [8]: 0 n (%)
- AESI: Investigations [8]: 0 n (%)
- Any AESI [8]: 0 n (%)
- AESI: Alanice aminotransferase increased [9]: 0 n (%)
- AESI: Investigations [9]: 0 n (%)
- Any AESI [9]: 0 n (%)
- AESI: Alanice aminotransferase increased [10]: 0 n (%)
- AESI: Investigations [10]: 0 n (%)
- Any AESI [10]: 0 n (%)
- AESI: Alanice aminotransferase increased [11]: 1 (3.0) n (%)
- AESI: Investigations [11]: 1 (3.0) n (%)
- Any AESI [11]: 1 (3.0) n (%)
- AESI: Alanice aminotransferase increased [12]: 0 n (%)
- AESI: Investigations [12]: 0 n (%)
- Any AESI [12]: 0 n (%)
- AESI: Alanice aminotransferase increased [13]: 1 (3.1) n (%)
- AESI: Investigations [13]: 1 (3.1) n (%)
- Any AESI [13]: 1 (3.1) n (%)
- Participants with any TEAE (BTK inhibitor treatment period, safety population): 18 (54.5) n (%)
- AE leading to death [14]: 0
- AE leading to study discontinuation [14]: 0
- Any AE leading to study treatment discontinuation [14]: 0
- Serious AE [14]: 0
- Adverse event: Accidental overdose (BTKi 5 mg (n = 33)): 0%
- Adverse event: Alanine aminotransferase increased (BTKi 5 mg (n = 33)): 1 (3%)
- Adverse event: Alopecia (BTKi 5 mg (n = 33)): 1 (3%)
- Adverse event: Back pain (BTKi 5 mg (n = 33)): 1 (3%)
- Adverse event: Gastroenteritis (BTKi 5 mg (n = 33)): 1 (3%)
- Adverse event: Headache (BTKi 5 mg (n = 33)): 1 (3%)
- Adverse event: Muscle spasticity (BTKi 5 mg (n = 33)): 0%
- Adverse event: Nasopharyngitis (BTKi 5 mg (n = 33)): 1 (3%)
- Adverse event: Oropharyngeal pain (BTKi 5 mg (n = 33)): 1 (3%)
- Adverse event: Peripheral edema (BTKi 5 mg (n = 33)): 2 (6%)
- Adverse event: Respiratory tract infection (BTKi 5 mg (n = 33)): 0%
- Adverse event: Upper respiratory tract infection (BTKi 5 mg (n = 33)): 2 (6%)
- AE leading to death [15]: 0 n (%)
- AE leading to study discontinuation [15]: 0 n (%)
- Any AE (4 weeks vs. placebo 12 weeks) [15]: 19 (57.6) n (%)
- Any AE leading to study treatment discontinuation [15]: 0 n (%)

Source: patent US20260272907A1, “Therapeutic Tyrosine Kinase Inhibitors for Multiple Sclerosis” (Principia Biopharma Inc., priority 2022, published 2026)
